From patent US20190142810A1, “MITOCHONDRIAL INHIBITORS FOR THE TREATMENT OF PROLIFERATION DISORDERS” (Basilea Pharmaceutica International AG, priority 2016, published 2019) come the findings set out here.

Test [1] relates to Oxygen consumption (mitochondrial function). In words: Oxygen consumption assay (MitoXpress probe). The class given is cell-based. Conditions: 5 h, MitoXpress probe signal, kinetic analysis at 37° C. for 5 hours, compared to untreated cells. The essentials:
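Cells seeded at 50′000/well, after 24 h given fresh media with inhibitor at a range of concentrations, then MitoXpress probe under mineral oil. Kinetic TRF read (380 nm excitation, 650 or 665 nm emission) at 37° C. for 5 hours. IC50 = concentration inhibiting 50% of probe signal versus untreated cells.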

The subject of another test is HeLa galactose cells. In words: Cell growth and proliferation assay of HeLa galactose cells (crystal violet). The class given is cell-based. Conditions: Homo sapiens, HeLa, 72 h, 72 hours incubation, crystal violet staining, absorbance at 590 nm. The essentials:
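HeLa cells adapted stepwise over three weeks to glucose-free galactose medium plus 10 mM galactose, seeded at 2000 cells/well and treated 72 h with compounds (0.001% DMSO) at 37° C. Growth read by crystal violet staining, dye solubilized and absorbance at 590 nm; IC50 from concentration-response curves.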

In general, IC50 refers to the midpoint of a concentration-inhibition curve. `Cc1cc(NC(=O)N2CCC(Cc3ccc(Cl)cc3F)CC2)sn1` [Example 63, 4-[(4-chloro-2-fluoro-phenyl)methyl]-N-(3-methylisothiazol-5-yl)piperidine-1-carboxamide]: the IC50 stood at 0.056 µM in test [1] and 0.02 µM in the test with HeLa galactose cells.
With `Cc1nsc(NC(=O)N2CCCC(=Cc3ccc(C#N)cc3F)CC2)n1` [Example 117], the IC50 in test [1] came to 0.145 µM; in the test with HeLa galactose cells it was 0.077 µM.
`Cc1nsc(NC(=O)N2CCCC(Cc3ccc(Cl)cc3F)CC2)n1` (stereo not drawn) [Example 49, 4-[(4-chloro-2-fluoro-phenyl)methyl]-N-(3-methyl-1,2,4-thiadiazol-5-yl)azepane-1-carboxamide]: the IC50 in test [1] is 0.058 µM; with HeLa galactose cells, 0.021 µM.
For `COCc1ccc(CC2CCN(C(=O)Nc3nc(C)ns3)CC2)cc1` [Example 6], the IC50 was determined as 0.2 µM in test [1] and 0.031 µM in the test on HeLa galactose cells.
The corresponding values for `Cc1ccc(CC2CCN(C(=O)Nc3nc(C)ns3)CC2)c(C)c1` [Example 12] are 0.5 µM and 0.019 µM.
Regarding `Cc1nsc(NC(=O)N2CCC(=Cc3c(F)cc(C#N)cc3F)CC2)n1` [Example 95, 4-[(4-cyano-2,6-difluoro-phenyl)methylene]-N-(3-methyl-1,2,4-thiadiazol-5-yl)piperidine-1-carboxamide], the IC50 amounted to 0.03 µM in test [1] and 0.02 µM in the test on HeLa galactose cells.
As for `O=C(Nc1ccncc1)N1CCC(=Cc2ccc(Cl)cc2F)CC1` [Example 94], the figures for the half-maximal inhibitory concentration (IC50) (in test [1]; with HeLa galactose cells) were 0.159 µM and 0.097 µM, respectively.
On to `Cc1nsc(NC(=O)N2CC/C(=C/c3ccc(Cl)cc3F)C(C)C2)n1` (stereo not drawn) [Example 83, (4Z)-4-[(4-chloro-2-fluoro-phenyl)methylene]-3-methyl-N-(3-methyl-1,2,4-thiadiazol-5-yl)piperidine-1-carboxamide], for which the IC50 in test [1] amounted to 0.329 µM; with HeLa galactose cells, 0.115 µM.
For `N#Cc1cc(F)c(C=C2CCN(C(=O)Nc3ccnc(C4CC4)c3)CC2)c(F)c1` [Example 182, 4-[(4-cyano-2,6-difluoro-phenyl)methylene]-N-(2-cyclopropyl-4-pyridyl)piperidine-1-carboxamide] the same measures were 0.108 µM and 0.013 µM.
The corresponding values for `CCc1cc(NC(=O)N2CCC(=Cc3c(F)cc(C#N)cc3F)CC2)ccn1` [Example 179, 4-[(4-cyano-2,6-difluoro-phenyl)methylene]-N-(2-ethyl-4-pyridyl)piperidine-1-carboxamide] are 0.041 µM and 0.011 µM.
For `Cc1ccc(SC2CCN(C(=O)Nc3nc(C)ns3)CC2)cc1` [Example 7, N-(3-methyl-1,2,4-thiadiazol-5-yl)-4-(p-tolylsulfanyl)piperidine-1-carboxamide] the same measures were 0.5 µM and 0.142 µM.
Consider `Cc1nsc(NC(=O)N2CCC(Cc3c(F)cc(Cl)cc3Cl)CC2)n1` [Example 66], for which the IC50 in test [1] is 0.119 µM; with HeLa galactose cells, 0.067 µM.
The corresponding values for `Cc1nsc(NC(=O)N2CCC(=Cc3c(F)cc(N(C)CC4CN(C)C4)cc3F)CC2)n1` [Example 161] are 0.159 µM and 0.05 µM.
With `Cc1nsc(NC(=O)N2CCCC(Cc3ccc(C(F)(F)F)cc3F)CC2)n1` (stereo not drawn) [Example 120, 4-[[2-fluoro-4-(trifluoromethyl)phenyl]methyl]-N-(3-methyl-1,2,4-thiadiazol-5-yl)azepane-1-carboxamide], the values for the IC50 (in test [1]; in the test on HeLa galactose cells) were 0.054 µM and 0.032 µM, respectively.
For `Cc1nsc(NC(=O)N2CCC(Cc3ccc(C(C)(C)C)cc3)CC2)n1` [Example 11] the same measures were 1.3 µM and 0.193 µM.
With `Cc1cc(NC(=O)N2CCC(Cc3ccc(Cl)cc3F)CC2)ccn1` [Example 72, 4-[(4-chloro-2-fluoro-phenyl)methyl]-N-(2-methyl-4-pyridyl)piperidine-1-carboxamide], the IC50 in test [1] amounted to 0.068 µM; in the test with HeLa galactose cells, 0.034 µM.
For `Nc1nsc(NC(=O)N2CCC(Cc3ccc(Cl)cc3F)CC2)n1` [Example 108, N-(3-amino-1,2,4-thiadiazol-5-yl)-4-[(4-chloro-2-fluoro-phenyl)methyl]piperidine-1-carboxamide], the IC50 in test [1] worked out at 0.132 µM; in the test with HeLa galactose cells it was 0.096 µM.
For `Cc1nsc(NC(=O)N2CCC(=Cc3ccc(NCCCN)cc3F)CC2)n1` [Example 102] the same measures were 0.395 µM and 0.189 µM.
For `COc1ccc(CC2CCN(C(=O)Nc3nc(C)ns3)CC2)c(F)c1` [Example 30] the same measures were 0.178 µM and 0.059 µM.
For `Cc1nsc(NC(=O)N2CCC(Cc3ccc(Cl)cc3N)CC2)n1` [Example 24] the same measures were 0.307 µM and 0.138 µM.
For `Cc1nsc(NC(=O)N2CCC(Cc3ccc(Cl)cc3Cl)CC2)n1` [Example 8], the IC50 in test [1] came out at 0.2 µM; in the test with HeLa galactose cells, 0.032 µM.
The corresponding values for `Cc1nsc(NC(=O)N2CCC(Cc3ccc(OC(F)(F)F)cc3)CC2)n1` [Example 53] are 0.89 µM and 0.329 µM.
For `Cc1ccc(CC2CCN(C(=O)Nc3nc(C)ns3)CC2)c(F)c1` [Example 27, 4-[(2-fluoro-4-methyl-phenyl)methyl]-N-(3-methyl-1,2,4-thiadiazol-5-yl)piperidine-1-carboxamide], the half-inhibitory concentration (IC50) amounted to 0.083 µM in test [1] and 0.059 µM in the test on HeLa galactose cells.
In the case of `Cc1nsc(NC(=O)N2CCC(=Cc3c(F)cc(N(C)C)cc3F)CC2)n1` [Example 112, 4-[[4-(dimethylamino)-2,6-difluoro-phenyl]methylene]-N-(3-methyl-1,2,4-thiadiazol-5-yl)piperidine-1-carboxamide], the results for the IC50 (in test [1]; in the test with HeLa galactose cells) were 0.023 µM and 0.012 µM, respectively.
In the case of `Cc1nsc(NC(=O)N2CCC(=Cc3ccc(Cl)cc3Cl)CC2)n1` [Example 21], the IC50 came to 0.208 µM in test [1] and 0.207 µM in the test with HeLa galactose cells.
On to `Cc1nsc(NC(=O)N2CC/C(=C\c3ccc(Cl)cc3F)CC2C)n1` (stereo not drawn) [Example 86, (4E)-4-[(4-chloro-2-fluoro-phenyl)methylene]-2-methyl-N-(3-methyl-1,2,4-thiadiazol-5-yl)piperidine-1-carboxamide], for which the figures for the IC50 (in test [1]; with HeLa galactose cells) were 0.061 µM and 0.021 µM, respectively.
Consider `COCc1ccc(C=C2CCN(C(=O)Nc3nc(C)ns3)CC2)c(F)c1` [Example 93, 4-[[2-fluoro-4-(methoxymethyl)phenyl]methylene]-N-(3-methyl-1,2,4-thiadiazol-5-yl)piperidine-1-carboxamide], for which the IC50 in test [1] is 0.063 µM; in the test with HeLa galactose cells, 0.056 µM.
The corresponding values for `Cc1cc(NC(=O)N2CCC(=Cc3ccc(Cl)cc3F)CC2)ccn1` [Example 128] are 0.168 µM and 0.033 µM.
The corresponding values for `Cc1nsc(NC(=O)N2CCC(=Cc3ccc(C(F)(F)F)cc3F)CC2)n1` [Example 38] are 0.131 µM and 0.061 µM.
Turning to `Cc1cc(NC(=O)N2CCC(=Cc3c(F)cc(N(C)C)cc3F)CC2)ccn1` [Example 154], the half-inhibitory concentration (IC50) in test [1] turned out to be 0.192 µM; in the test with HeLa galactose cells, 0.037 µM.
With `Cc1nsc(NC(=O)N2CCC(Cc3ccc(C)c(F)c3)CC2)n1` [Example 29], the half-inhibitory concentration (IC50) worked out at 0.205 µM in test [1] and 0.256 µM in the test with HeLa galactose cells.
The corresponding values for `Cc1nsc(NC(=O)N2CCC(Cc3c(F)cc(N(C)C)cc3F)CC2)n1` [Example 113, 4-[[4-(dimethylamino)-2,6-difluoro-phenyl]methyl]-N-(3-methyl-1,2,4-thiadiazol-5-yl)piperidine-1-carboxamide] are 0.052 µM and 0.035 µM.
For `COc1cc(F)c(CC2CCN(C(=O)Nc3nc(C)ns3)CC2)c(F)c1` [Example 98, 4-[(2,6-difluoro-4-methoxy-phenyl)methyl]-N-(3-methyl-1,2,4-thiadiazol-5-yl)piperidine-1-carboxamide] the same measures were 0.076 µM and 0.039 µM.
Regarding `Cc1nsc(NC(=O)N2CCC(=Cc3ccc(N4CCCC4)cc3F)CC2)n1` [Example 45, 4-[(2-fluoro-4-pyrrolidin-1-yl-phenyl)methylene]-N-(3-methyl-1,2,4-thiadiazol-5-yl)piperidine-1-carboxamide], the 50% inhibitory concentration (IC50) in test [1] was 0.44 µM; in the test on HeLa galactose cells it was 0.284 µM.
For `Cc1nsc(NC(=O)N2CCN(Cc3ccc(Cl)cc3F)CC2)n1` [Example 50, 4-[(4-chloro-2-fluoro-phenyl)methyl]-N-(3-methyl-1,2,4-thiadiazol-5-yl)piperazine-1-carboxamide] the same measures were 0.255 µM and 0.197 µM.
Turning to `N#CCCc1nsc(NC(=O)N2CCC(=Cc3ccc(Cl)cc3F)CC2)n1` [Example 80, 4-[(4-chloro-2-fluoro-phenyl)methylene]-N-[3-(2-cyanoethyl)-1,2,4-thiadiazol-5-yl]piperidine-1-carboxamide], the IC50 in test [1] is 0.108 µM; with HeLa galactose cells, 0.134 µM.
For `Cc1nsc(NC(=O)N2CCC(=Cc3ccc(CO)cc3F)CC2)n1` [Example 89, 4-[[2-fluoro-4-(hydroxymethyl)phenyl]methylene]-N-(3-methyl-1,2,4-thiadiazol-5-yl)piperidine-1-carboxamide], the results for the IC50 (in test [1]; in the test on HeLa galactose cells) were 0.352 µM and 0.228 µM, respectively.
The corresponding values for `Cc1nsc(NC(=O)N2CCC(Cc3ccc(N)cc3)CC2)n1` [Example 4, 4-[(4-aminophenyl)methyl]-N-(3-methyl-1,2,4-thiadiazol-5-yl)piperidine-1-carboxamide] are 0.4 µM and 0.46 µM.
For `O=C(Nc1nc(CCO)ns1)N1CCC(=Cc2ccc(Cl)cc2F)CC1` [Example 78, 4-[(4-chloro-2-fluoro-phenyl)methylene]-N-[3-(2-hydroxyethyl)-1,2,4-thiadiazol-5-yl]piperidine-1-carboxamide] the same measures were 0.267 µM and 0.163 µM.
